The values below come from patent US20220280644A1, “"TRPswitch" - A STEP FUNCTION CHEMO-OPTOGENETIC LIGAND” (UNIVERSITY OF UTAH RESEARCH FOUNDATION, priority 2019, published 2022).

One series concerns zebrafish Trpa1b. The series is described as follows: Whole-cell patch-clamp of HEK293T cells expressing zebrafish Trpa1b. It counts as cell-based. As to the method: Immortalized HEK293T cells or human colonic fibroblast cells (CCD-18Co; ATCC) were used. HEK293T cells were plated on […] cover slips and transiently transfected with 10 μg of Trpa1b plasmid (pCMV-zTrpa1b-FLAG) (SEQ ID NO:3) and 5 μg of mNeonGreen cDNA (Allele Biotechnology), then grown in a 6 cm plate for 24-48 h. CCD-18Co were cultured in Eagle's minimal essential medium with 10% FBS, 1× penicillin and streptomycin. CCD-18Co cells were plated on 12 mm cover slips and transiently transfected with 5 μg of zTrpa1b plasmid (pCMV-zTrpa1b-FLAG) together with 5 μg of mNeonGreen cDNA (Allele Biotechnology), then grown in a […] plate for 48-72 h. After this time, the cover slips were transferred to a recording chamber containing an extracellular solution composed of 145 mM sodium gluconate, 4 mM KCl, 3 mM MgCl2, 10 mM D-glucose, 10 mM HEPES; pH 7.4 adjusted with NaOH. The internal solution contained 122 mM cesium methane sulfonate, 1.8 mM MgCl2, 9 mM EGTA, 14 mM creatine phosphate (sodium salt), 4 mM Mg-ATP, 0.3 mM Na-GTP, 10 mM HEPES, pH 7.2 adjusted with CsOH. Borosilicate glass pipettes with a resistance of 3-5 MO were used. Whole cell currents were measured on an Axopatch 200B amplifier (Molecular De-vices) under the control of pClamp software. Signals were digitized through a Digidata1550B interface (Molecular Devices). Currents were filtered at 5 kHz (lowpass, Bessel) and sampled at 10 kHz prior to analysis with Clampfit software (Molecular Devices). All the plots and statistical tests were performed on Excel (Microsoft corp.). Basal Trpa1b whole cell currents were measured with a ramp protocol (˜100 to +100 mV, at a holding potential of 0 mV). Photoactive compounds were perfused into the recording chamber and a fluorescent light generated by mercury vapor short arc (U-HGLGPS, OLYMPUS) filtered through an ET-ECFP 434/17 nm filter and through a ET-mCherry 560 nm filter (Chroma Technology) was switched “on” and “off” for 10 s. All experiments were performed at room temperature. The p values were calculated using a two-tailed, paired Student's t-test.
A general note: Patch clamp records ionic current or voltage across a cell membrane.

Another series has as its target T1, endogenous human TRPA1 (Homo sapiens, UniProt O75762).
T1 construct: human colonic fibroblast cells, CCD-18Co, which express human TRPA1 endogenously; endogenous in cells; host or cells: CCD-18Co (ATCC), untransfected
The series is described as follows: Whole cell current in untransfected CCD-18Co cells. Type of series: cell-based. The following applies: untransfected CCD-18Co. As to the method: Immortalized HEK293T cells or human colonic fibroblast cells (CCD-18Co; ATCC) were used. HEK293T cells were plated on […] cover slips and transiently transfected with 10 μg of Trpa1b plasmid (pCMV-zTrpa1b-FLAG) (SEQ ID NO:3) and 5 μg of mNeonGreen cDNA (Allele Biotechnology), then grown in a 6 cm plate for 24-48 h. CCD-18Co were cultured in Eagle's minimal essential medium with 10% FBS, 1× penicillin and streptomycin. CCD-18Co cells were plated on 12 mm cover slips and transiently transfected with 5 μg of zTrpa1b plasmid (pCMV-zTrpa1b-FLAG) together with 5 μg of mNeonGreen cDNA (Allele Biotechnology), then grown in a […] plate for 48-72 h. After this time, the cover slips were transferred to a recording chamber containing an extracellular solution composed of 145 mM sodium gluconate, 4 mM KCl, 3 mM MgCl2, 10 mM D-glucose, 10 mM HEPES; pH 7.4 adjusted with NaOH. The internal solution contained 122 mM cesium methane sulfonate, 1.8 mM MgCl2, 9 mM EGTA, 14 mM creatine phosphate (sodium salt), 4 mM Mg-ATP, 0.3 mM Na-GTP, 10 mM HEPES, pH 7.2 adjusted with CsOH. […] Whole cell currents were measured on an Axopatch 200B amplifier (Molecular De-vices) under the control of pClamp software. […] Basal Trpa1b whole cell currents were measured with a ramp protocol (˜100 to +100 mV, at a holding potential of 0 mV). […] The p values were calculated using a two-tailed, paired Student's t-test.

A short description of series [1]: UV-Vis absorbance, E/Z isomerization with violet and green light. Type of series: physicochemical. Particulars: UV-Vis absorbance in DMSO. On the procedure: Compounds were dissolved in DMSO at 250 μM and 260 μM for TRPswitch-A and TRPswitch-B, respectively and UV-Vis absorbance was measured using a NanoDrop 1000 (Thermo Scientific).
Series [2] can be described thus: Photostationary state (PSS) determination. It counts as physicochemical. The source says:
[…] In the latter case, the pure Z isomer spectrum was estimated using methods described in previous publications.

In series [3] the test system is wild-type zebrafish larvae. The series is described as follows: Behavioral assay: light-induced motion response of wild-type larvae. Type of series: in vivo, Zebrafish (Danio rerio). As to the method: A total of 1,000 compounds were selected from the ChemBridge Corp. catalog. Compounds were dissolved in DMSO at a stock concentration of 1 μg/μL (˜1.5 mM). The library was screened at a 1:100 dilution in E3 solution for a final concentration of ˜15 μM. Negative controls were treated with an equal volume of DMSO. Groups of 3 larvae at 3 days post fertilization (dpf) were distributed into the wells of 96-well clear bottom black microplates (07-200-567; Fisher Scientific) in 150 μL E3 before the addition of small molecules. Stock solutions of compounds were added directly to zebrafish in the wells of a 96 well plate (Corning 3631), mixed, and allowed to incubate for 1 h in the dark at 28.5° C. prior to behavioral evaluation in the behavioral assay. Ordering information: 1 (5533696; ChemBridge); 3 (5538408; ChemBridge).
Larvae in each of the wells were exposed to four 1 second flashes of light stimulus in the following order: 450-500 nm (WL1), 415-455 nm (WL2), 352-402 nm (WL3), white light (WL4), with a 5 second inter-stimulus interval. Digital video recording was performed for 5 seconds before the first light stimuli and continued throughout the stimulation sequence. Band pass filters (Semrock FF02-475/50, FF02-435/40, FF01-377/50) were used to restrict the excitation light to the indicated wavelengths. […] 290 frames of digital video were recorded per well at 10 FPS using an EMCCD camera (C9100; Hamamatsu) mounted on an inverted compound microscope (AxioObserver A1; Zeiss) with a NA 0.03 1.25× objective and a barrier with a 0.7 mm diameter opening to restrict light scattering to the sample. MetaMorph software (Molecular Devices) was used to control the execution of TTL signals and camera capture using the built-in stream acquisition with trigger function. Each video was saved for review. Light stimuli were generated with an ozone free 300-Watt xenon bulb housed in a Lambda LS illuminator (Sutter Instruments). A dichroic mirror (T510LPXRXT; Chroma) was used for appropriate excitation of samples and bright field acquisition. Schott longpass absorption glass (RG610; Chroma) was added in the transmitted light path to reduce unwanted excitation to the well and to provide sufficient light for video recording. All behavioral experiments were conducted at room temperature. […]
To analyze digital video recordings, custom MetaMorph software scripts were used to automatically threshold the video to identify the area of larvae in each frame. Threshold images of the frames after each light activation event were overlaid to calculate a new combined threshold area. The motion index was calculated as the percentage change between the threshold area in the frame right before light activation and the new combined threshold area. This motion index correlates with the overall amount of motion in the well.

The next series has as its system Trpa1b. The series is described as follows: Heartbeat interruption in larvae expressing Trpa1b in cardiomyocytes. It counts as in vivo, zebrafish. Particulars: 20 μM. As to the method:
Heartbeat interruption experiments were performed in vivo on 2 dpf Tg(cm/c2:Trpa1b-2A-EGFP) larvae in a Trpa1b^−/− background. Larvae were pretreated with 20 μM of TRPswitch-A or TRPswitch-B in E3 at a final concentration of 1% DMSO for 1 h in the dark at 28.5° C. before experimental manipulation. Immediately prior to the onset of experiments, E3 solution was replaced with 0.2 mg/mL tricaine (Sigma, A5040) in E3 for anesthetizing the larvae. Violet light (352-402 nm) and green light (500-600 nm) were used for E to Z and Z to E isomerization, respectively. Violet and green light excitation were achieved using a band pass filter FF01-377/50 and an et500lp long pass barrier filter, respectively, together with a t600plxxr dichroic mirror and a 300-Watt xenon bulb light source (Sutter Instrument). Experiments were performed using a NA 0.6 40× air objective at room temperature. The zebrafish heart in the whole field of view was illuminated with 1 s violet light followed by various lengths of green light as indicated. Ventricle width measurement was performed using the ImageJ ‘measure’ function on the widest outer ventricle width every 100 ms.

Series [4] can be described thus: Aqueous solubility observation. It counts as physicochemical.
Series [5] is described as follows: Z→E thermal isomerisation kinetics. It counts as physicochemical. On the procedure: In order to determine the Z→E thermal isomerisation kinetics in DMSO-d6 a ˜20 mM solution of the relevant compound was irradiated using a Luzchem LZC-4V photoreactor fitted with 12×8 W LZC-420 lamps (420 nm peak emission) until no further change was observable by ^1H NMR. For 30% water:DMSO samples, a 15 μM solution of the relevant compound was irradiated in a quartz cuvette using 365 nm LEDs (3×800 mW Nichia NCSU276A) until no further change was observed by UV-Vis spectroscopy. Compounds (˜25 μM solutions in DMSO) were treated analogously. In the case of compounds studied by NMR, the change in Z-isomer percentage was followed as a function of time through integration of the relevant peaks. […]
For data collected via ^1H NMR, the natural log of the Z isomer concentration was plotted against time to yield a straight line implying first order kinetics. The gradient of this line was used to determine the rate constant for Z→E conversion from which the thermal half-life could be calculated:
For data collected via UV-Vis Spectroscopy, absorbance data at a fixed wavelength was fitted using the following, first order equation: […]
where k represents the rate constant; A∞, A0 and At are the absorbances of the pure E-state, Z-rich state, and time t, respectively. […]

The test system of series [6] is wild-type zebrafish larvae. The following applies: reference [23]; cited from earlier work.
The next series has as its system Trpa1b mutant larvae. The following applies: previously identified; cited from earlier work.
Setting [7] is: UV-Vis spectroscopy in 30% water:DMSO, extrapolated pure Z spectrum, listed as TRPswitch-A.

T1 sequence (O75762 whole entry): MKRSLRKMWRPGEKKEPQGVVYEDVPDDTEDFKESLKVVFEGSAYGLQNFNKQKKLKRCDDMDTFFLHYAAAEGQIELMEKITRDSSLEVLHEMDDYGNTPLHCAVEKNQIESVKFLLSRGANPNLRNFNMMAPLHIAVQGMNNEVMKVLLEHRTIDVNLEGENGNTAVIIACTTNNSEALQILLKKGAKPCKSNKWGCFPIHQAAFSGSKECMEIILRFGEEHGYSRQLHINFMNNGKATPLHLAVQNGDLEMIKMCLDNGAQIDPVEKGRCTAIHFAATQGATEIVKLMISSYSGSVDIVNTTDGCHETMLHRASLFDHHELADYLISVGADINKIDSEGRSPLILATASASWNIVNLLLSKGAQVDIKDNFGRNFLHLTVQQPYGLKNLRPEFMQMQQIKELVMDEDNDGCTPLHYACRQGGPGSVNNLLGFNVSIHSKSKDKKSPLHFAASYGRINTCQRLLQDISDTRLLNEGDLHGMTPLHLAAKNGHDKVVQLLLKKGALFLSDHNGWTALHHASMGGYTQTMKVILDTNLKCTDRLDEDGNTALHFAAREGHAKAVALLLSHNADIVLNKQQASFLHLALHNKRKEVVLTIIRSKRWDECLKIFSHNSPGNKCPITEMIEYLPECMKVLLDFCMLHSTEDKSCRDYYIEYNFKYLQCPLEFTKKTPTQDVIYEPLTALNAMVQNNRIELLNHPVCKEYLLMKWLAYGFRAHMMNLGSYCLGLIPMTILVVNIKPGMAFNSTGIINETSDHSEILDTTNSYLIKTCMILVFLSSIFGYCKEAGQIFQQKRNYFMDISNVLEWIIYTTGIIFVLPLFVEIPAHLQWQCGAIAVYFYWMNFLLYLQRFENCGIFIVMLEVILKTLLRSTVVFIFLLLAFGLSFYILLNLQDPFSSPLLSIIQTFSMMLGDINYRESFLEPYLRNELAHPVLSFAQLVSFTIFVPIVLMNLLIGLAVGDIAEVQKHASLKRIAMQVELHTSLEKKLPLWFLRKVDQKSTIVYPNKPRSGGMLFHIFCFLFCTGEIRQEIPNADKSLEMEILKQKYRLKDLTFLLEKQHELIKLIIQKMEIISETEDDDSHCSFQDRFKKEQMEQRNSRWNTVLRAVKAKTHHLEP

Turning to `C=CCN=C=S` [AITC, allyl isothiocyanate, reference compound], the “agonist-activated Trpa1b currents” value in the series on zebrafish Trpa1b (positive control) is “activated currents”. For the same molecule, the “response of human TRPA1 current” value at endogenous human TRPA1 is recorded as “responded”.

Take `O=C(Nc1ccc(/N=N/c2ccccc2)c(NC(=O)c2ccco2)c1)c1ccco1` [Compound 1, (E)-N,N′-(4-(phenyldiazenyl)-1,3-phenylene)bis(furan-2-carboxamide)]: the “Trpa1b current upon violet light stimulation” value in the series on zebrafish Trpa1b (10 μM, compared to baseline) was “high amplitude currents”. The “Trpa1b photocurrent upon subsequent green light stimulation” value in the series with zebrafish Trpa1b (10 μM, same cell) is listed as “recovered to its baseline current magnitude”. Also, in the series with zebrafish Trpa1b (+100 mV), the “current density fold increment after subsequent pulse of green light” value is recorded as 1.15±0.17 fold and the “current density fold increment upon violet light illumination” value was determined as 2.36±0.50 fold. Also, in the series with zebrafish Trpa1b (−100 mV), the “current density fold increment after subsequent pulse of green light” value turned out to be 3.71±1.31 fold and the “current density fold increment upon violet light illumination” value was determined as 4.35±1.44 fold. Moreover, the “E/Z photoswitching with violet and green light” value in [1] is recorded as “incomplete”. Besides, in series [2] (1H NMR in DMSO-d6), the “365 nm PSS (E-Z)” value turned out to be 79% Z, the “420 nm PSS (E-Z)” value was determined as 53% Z and the “495 nm PSS (Z-E)” value is on record as 71% E. Moreover, in [2] (setting [7]), the “Estimated 365 nm PSS (E-Z)” value is 86% Z and the “Estimated 495 nm PSS (Z-E)” value was 73% E. The “light-induced motion response (in vivo activity)” value in series [3] (3 dpf wild-type larvae, 1 s flashes WL1-WL4) was “light-induced motion response across multiple wavelengths”. Also, the “bandwidth with the most activity” value in [3] (light-induced motion response) is on record as 415-455 nm. Moreover, the “ventricle heartbeat after 1 s violet light” value with Trpa1b (1 h pre-incubation) is “could be stopped”. In the series on Trpa1b (after violet light), the “ventricular rhythm after 1 s green light” value is given as “re-stored”.

As for `Cc1nn(C)c(C)c1/N=N/c1ccc(NC(=O)c2ccco2)cc1NC(=O)c1ccco1` [Compound 8, (E)-N,N′-(4-((1,3,5-trimethyl-1H-pyrazol-4-yl)diazenyl)-1,3-phenylene)bis(furan-2-carboxamide)], the aqueous solubility result in series [4] is reported as “some aqueous solubility issues”. In addition, the “E/Z photoswitching with violet and green light” value in series [1] is “quantitative photoswitching in both directions”. Further, the “thermal half-lives” value in series [5] is “long thermal half-lives”.

For `Cc1cc(/C=C2/SC(=S)NC2=O)c(C)n1-c1cccnc1` [optovin], the “suppression of response by DABCO” value in [6] is on record as “completely suppress”. In addition, in series [3] (DABCO, singlet oxygen quencher), the “effect of DABCO on light-induced motion response” value is on record as “abolished”. Besides, the “activity in Trpa1b mutant zebrafish” value in the series with Trpa1b mutant larvae is recorded as “abolished”.
